Laboratory results published in patent US20100041756A1, “METHOD OF MODULATING B CELL FUNCTIONING” (priority 2004, published 2010).

What was measured:
Type in all cases: cell-based, mouse
[1] = system: B cells stimulated with anti-CD40; assay: Purified B cell proliferation, anti-CD40, 3H-thymidine incorporation (Example 4)
Description: (§1) FIG. 10 is a graphical representation depicting that 3,4-DAA and 3-HAA inhibit B and T cell proliferation in vitro. Purified B and T cells were stimulated for 72 h with anti-CD40 (a), or anti-CD3/anti-CD28 (b) respectively, in the presence of varying doses of 3,4-DAA, or 3-HAA.
(§2) A single cell suspension was prepared from spleen by mincing through a cell strainer, and erythrocytes were lysed using an ammonium chloride solution (Sigma, St Louis, Mo., USA). B cells were positively enriched by using anti-IgM MACS microbeads, and T cells were positively enriched using anti-CD4 MACS microbeads and the MACS system, according to the manufacturer's guidelines (Miltenyi Biotec, Bergisch Gladbach, Germany). Purity was assessed by flow cytometric analysis (B cell>90% CD19+, T cell>90% CD4+). Cells were cultured at 5×10^5 cells/ml in 200 μl complete RPMI, as above, in a flat bottom 96-well plate and cultured for 72 h. B cells were stimulated with anti-CD40 monoclonal antibody (10 μg/ml; BD), and T cells were stimulated with 5 μg/ml plate-bound anti-CD3 (BD), 5 μg/ml soluble anti-CD28 (BD). Tranilast, 3-HAA, or vehicle (DMSO) were incubated at concentrations stated with the cultures. 48 hours after stimulation, 100 μl culture medium was collected, and cells were pulsed with 1 μCi ^3H thymidine per well for 18 h. Cells were then harvested and plates assessed for incorporation. Each assay was performed on a minimum of 3 occasions. Data shown is of one representative experiment, and is expressed as mean+/−SD of triplicate in culture. IFN-γ, IL-10 and IL-5 levels was assessed in the culture medium by ELISA, as above.

[2] = system: T cells stimulated with anti-CD3/anti-CD28; assay: Purified T cell proliferation, anti-CD3/anti-CD28, 3H-thymidine incorporation (Example 4)
Description: as §1, §2

[3] = system: T cells stimulated with anti-CD3/anti-CD28; assay: Cytokine production by stimulated T cells in vitro (ELISA)
Description: as §1, §2

With `Nc1c(O)cccc1C(=O)O` [3-HAA, 3-Hydroxyanthranilic acid] the IC50 ([1]; Mus musculus, B-cell, anti-CD40, 72 h, 3H-thymidine (FIG. 10A), read-out: IC50 for inhibition of B cell proliferation) was 64.7 µM, the B cell proliferation ([1]; anti-CD40, varying doses (FIG. 10A)) was “dose-dependently inhibited” and the IC50 ([2]; Mus musculus, T-cell, anti-CD3/CD28, 72 h, 3H-thymidine (FIG. 10B), read-out: IC50 for inhibition of T cell proliferation) was 100 µM. For the same molecule, the T cell proliferation ([2]; anti-CD3/CD28, varying doses (FIG. 10B)) was “dose-dependently inhibited”, the “IFN-γ production by T-cells” value ([3]; FIG. 10C) was “dose-dependently reduced” and the “IL-10 production by T-cells” value ([3]; FIG. 10D) was “increased”. For the same molecule, the “IL-5 production by T-cells” value ([3]; FIG. 10E) was “increased”.
